Results from patent publication US20210130473A1, “TGFßR1 INHIBITOR-ASGR ANTIBODY CONJUGATES AND USES THEREOF” (Silverback Therapeutics, Inc., priority 2019, published 2021).

Tested on: TGFβ/SMAD Signaling Pathway SBE reporter cell line
Assay: TGFb reporter assay in HEK293 SBE-LUC reporter cells (luciferase)
Assay type: cell-based
Conditions: Homo sapiens, key of the table says IC50, read-out: EC50 (the source's name)
Procedure: TGFβ/SMAD Signaling Pathway SBE reporter cell line was obtained from BPS Bioscience. Cells are passed, expanded, and stored in liquid nitrogen as per the supplier's instructions with the exception that growth media is changed to DMEM-C with Geneticin (DMEM supplemented with 10% fetal bovine serum, 1×NEAA, 1 mM Pyruvate, 2 mM glutamine, 50 μg/mL penicillin, 50 U/mL streptomycin and 400 μg/mL of Geneticin). The assay media is MEM supplemented with 0.5% fetal bovine serum, 1×NEAA, 1 mM Pyruvate, 50 μg/mL penicillin and 50 U/mL streptomycin.
Compounds are assayed to measure their activity as ALK5 inhibitors.
The HEK293 SBE-LUC reporter cells from Example 15 were grown in DMEM-C with Geneticin (DMEM supplemented with […], 1×NEAA, 1 mM Pyruvate, 2 mM glutamine, 50 μg/mL penicillin, 50 U/mL streptomycin and 400 ug/mL of Geneticin). The assay media was MEM supplemented with 0.5% fetal bovine serum, 1×NEAA, 1 mM Pyruvate, 50 μg/mL penicillin and 50 U/mL streptomycin.
The HEK293 SBE-LUC reporter cells were harvested from the tissue culture flasks by incubation in small quantity of Versene at room temperature for three to five minutes after the media in the flask is removed and cells rinsed with PBS. Cells were counted and diluted in the assay media at ˜0.8×10^6 cells/mL then 50 uL/well were added to 96-well assay plate. Test samples (at desired concentrations diluted in assay media) were added to assay plate containing the 50 uL/well of cells (or media only), 50 uL per well, and incubated for 5-6 hours at 37° C. in a 5% CO2 humidified incubator. After that time, 15 uL of TGFb diluted to 12.5 ng/mL in the assay media was added to the plate. Controls included TGFb titration (from 25 to 0 ng/mL) without inhibitors, and media only (without cells, inhibitor or TGFb). Plates were incubated at 37° C. in a 5% CO2 humidified incubator for 18h. Luciferase substrate solution was subsequently added at 75 uL per well, incubated in dark with shaking at room temperature for 10 min, and luminescence was measured using a luminometer.

| SMILES | IC50 [nM] |
| --- | --- |
| Cc1cccc(-c2nc(CNc3ccc4c(c3)CNCC4)[nH]c2-c2ccc3ncnn3c2)n1 [Compound 1.1] | 100 to 1000 |
| Cc1cccc(-c2nc(CNc3ccc4c(c3)CCNC4)[nH]c2-c2ccc3ncnn3c2)n1 [Compound 1.2] | 100 to 1000 |
| Cc1cccc(-c2nc(CNc3cccc4c3CNCC4)[nH]c2-c2ccc3ncnn3c2)n1 [Compound 1.3] | 100 to 1000 |
| Cc1cccc(-c2nc(CNc3cccc4c3CCNC4)[nH]c2-c2ccc3ncnn3c2)n1 [Compound 1.4] | 100 to 1000 |
| Cc1cccc(-c2nc(CNc3ccc4c(c3)CCC4N)[nH]c2-c2ccc3ncnn3c2)n1 (stereo not drawn) [Compound 1.5] | 100 to 1000 |
| Cc1cccc(-c2nc(CNc3cccc4c3CCC4N)[nH]c2-c2ccc3ncnn3c2)n1 (stereo not drawn) [Compound 1.6] | 100 to 1000 |
| Cc1cccc(-c2nc(CNC3CC3)[nH]c2-c2ccc3ncnn3c2)n1 [Compound 1.7] | 100 to 1000 |
| Cc1cccc(-c2nc(CNCC3CC3)[nH]c2-c2ccc3ncnn3c2)n1 [Compound 1.8] | 100 to 1000 |
| Cc1cccc(-c2nc(CNC34CC(C3)C4)[nH]c2-c2ccc3ncnn3c2)n1 [Compound 1.9] | 10 to 100 |
| Cc1cccc(-c2nc(CNC3CCC3)[nH]c2-c2ccc3ncnn3c2)n1 [Compound 1.10] | 100 to 1000 |
| Cc1cccc(-c2nc(CNC3CCCC3)[nH]c2-c2ccc3ncnn3c2)n1 [Compound 1.11] | 10 to 100 |
| Cc1cccc(-c2nc(CNC3CCCCC3)[nH]c2-c2ccc3ncnn3c2)n1 [Compound 1.12] | 10 to 100 |
| Cc1cccc(-c2nc(CNC3CCCCCC3)[nH]c2-c2ccc3ncnn3c2)n1 [Compound 1.13] | 10 to 100 |
| Cc1cccc(-c2nc(CNC3CCOCC3)[nH]c2-c2ccc3ncnn3c2)n1 [Compound 1.14] | 10 to 100 |
| Cc1cccc(-c2nc(CNC3CCCOC3)[nH]c2-c2ccc3ncnn3c2)n1 (stereo not drawn) [Compound 1.15] | 10 to 100 |
| Cc1cccc(-c2nc(CNC3CCCCC3C)[nH]c2-c2ccc3ncnn3c2)n1 (stereo not drawn) [Compound 1.16] | 10 to 100 |
| Cc1cccc(-c2nc(CNc3cncc(CN)c3)[nH]c2-c2ccc3ncnn3c2)n1 [Compound 1.19] | 100 to 1000 |
| Cc1cccc(-c2nc(CNc3cccc4c3C(N)CC4)[nH]c2-c2ccc3ncnn3c2)n1 (stereo not drawn) [Compound 1.20] | 100 to 1000 |
| Cc1cccc(-c2nc(CNc3ccc4c(c3)C(N)CC4)[nH]c2-c2ccc3ncnn3c2)n1 (stereo not drawn) [Compound 1.21] | 100 to 1000 |

| SMILES | IC50 [nM] |
| --- | --- |
| Cc1cccc(-c2nc(CNC3CCc4ccccc43)[nH]c2-c2ccc3ncnn3c2)n1 (stereo not drawn) [Compound 1.26] | 10 to 100 |
| Cc1cccc(-c2nc(CNC3Cc4ccccc4C3)[nH]c2-c2ccc3ncnn3c2)n1 [Compound 1.27] | 10 to 100 |
| Cc1cccc(-c2nc(CN3CCCCC3)[nH]c2-c2ccn3ncnc3c2)n1 [Compound 1.35] | 100 to 1000 |
| Cc1cccc(-c2nc(CNC3CCCNC3)[nH]c2-c2ccn3ncnc3c2)n1 (stereo not drawn) [Compound 1.38] | 1000 to 10000 |
| Cc1cccc(-c2nc(CNC3CCNCC3)[nH]c2-c2ccn3ncnc3c2)n1 [Compound 1.39] | 1000 to 10000 |
| Cc1cccc(-c2nc(CN3CCc4ccccc4C3)[nH]c2-c2ccn3ncnc3c2)n1 [Compound 1.40] | 100 to 1000 |
| Cc1cccc(-c2nc(CNCc3ccc4c(c3)OCO4)[nH]c2-c2ccc3ncnn3c2)n1 [Compound 1.41] | 100 to 1000 |
| Cc1cccc(-c2nc(CNCC3CCCCC3)[nH]c2-c2ccc3ncnn3c2)n1 [Compound 1.42] | 10 to 100 |
| Cc1cccc(-c2nc(CN[C@H]3c4ccccc4C[C@H]3O)[nH]c2-c2ccc3ncnn3c2)n1 [Compound 1.43] | 10 to 100 |
| Cc1cccc(-c2nc(CN[C@@H]3c4ccccc4C[C@@H]3O)[nH]c2-c2ccc3ncnn3c2)n1 [Compound 1.44] | 10 to 100 |
| Cc1cccc(-c2nc(CN[C@H]3c4ccccc4C[C@@H]3O)[nH]c2-c2ccc3ncnn3c2)n1 [Compound 1.45] | 10 to 100 |
| Cc1cccc(-c2nc(CN[C@@H]3c4ccccc4C[C@H]3O)[nH]c2-c2ccc3ncnn3c2)n1 [Compound 1.46] | 10 to 100 |
| Cc1cccc(-c2nc(C3CCCCN3)[nH]c2-c2ccc3ncnn3c2)n1 (stereo not drawn) [Compound 1.49] | 100 to 1000 |
| Cc1cccc(-c2nc(C3CCNC3)[nH]c2-c2ccc3ncnn3c2)n1 (stereo not drawn) [Compound 1.50] | 100 to 1000 |
| Cc1cccc(-c2nc(C3CNC3)[nH]c2-c2ccc3ncnn3c2)n1 [Compound 1.53] | 1000 to 10000 |
| Cc1cccc(-c2nc(CN3Cc4ccccc4C3=O)[nH]c2-c2ccc3ncnn3c2)n1 [Compound 1.56] | 10 to 100 |
| Cc1cccc(-c2nc(CNCc3cccc(Oc4ccccc4)c3)[nH]c2-c2ccc3ncnn3c2)n1 [Compound 56] | 10 to 100 |
| Cc1cccc(-c2nc(CNCc3ccccc3-c3ccccc3)[nH]c2-c2ccc3nccnc3c2)n1 [Compound 72] | 10 to 100 |

Other lines, results leading:

| IC50 [nM] | SMILES |
| --- | --- |
| 0.1 to 10 | Cc1cccc(-c2nc(CNCc3ccccc3)[nH]c2-c2ccc3ncnn3c2)n1 [Compound 1, 1-(5-([1,2,4]triazolo[1,5-a]pyridin-6-yl)-4-(6-methylpyridin-2-yl)-1H-imidazol-2-yl)-N-benzylmethanamine] |
| 10 to 100 | Cc1cccc(-c2nc(CNCc3cccc4ccccc34)[nH]c2-c2ccc3ncnn3c2)n1 [Compound 1.57] |
| 100 to 1000 | Cc1cccc(-c2nc(CNCc3ccc4ccccc4c3)[nH]c2-c2ccc3ncnn3c2)n1 [Compound 1.58] |
| 10 to 100 | Cc1cccc(-c2nc(CNCCc3cccc4ccccc34)[nH]c2-c2ccc3ncnn3c2)n1 [Compound 1.59] |
| 10 to 100 | Cc1cccc(-c2nc(CNCCc3ccnc4ccccc34)[nH]c2-c2ccc3ncnn3c2)n1 [Compound 1.60] |
| 10 to 100 | Cc1cccc(-c2nc(CNCCc3cccc4ncccc34)[nH]c2-c2ccc3ncnn3c2)n1 [Compound 1.61] |
| 1000 to 10000 | Cc1cccc(-c2nc(CNCc3ccccc3Oc3ccncc3)[nH]c2-c2ccc3ncnn3c2)n1 [Compound 55] |
| 10 to 100 | Cc1cccc(-c2nc(CNCc3cccc(Oc4cccnc4)c3)[nH]c2-c2ccc3ncnn3c2)n1 [Compound 57] |
| 10 to 100 | Cc1cccc(-c2nc(CNCc3cccc(Oc4ccncc4)c3)[nH]c2-c2ccc3ncnn3c2)n1 [Compound 58] |
| 100 to 1000 | Cc1cccc(-c2nc(CNCc3ccccc3)[nH]c2-c2ccc3ncccc3n2)n1 [Compound 73] |
| 100 to 1000 | Cc1cccc(-c2nc(CNCc3ccccc3)[nH]c2-c2ccnc3ccccc23)n1 [Compound 74] |
| 100 to 1000 | Cc1cccc(-c2nc(CNCc3ccccc3)[nH]c2-c2ccccn2)n1 [Compound 75] |
| 10 to 100 | Cc1cccc(-c2nc(CNCc3ccccc3)[nH]c2-c2ccc3c(c2)OCO3)n1 [Compound 76] |
| 0.1 to 10 | Cc1cccc(-c2nc(CNCc3ccccc3)[nH]c2-c2ccc3nccnc3c2)n1 [Compound 77] |
| 0.1 to 10 | Cc1cccc(-c2nc(CNCCc3c(F)cccc3F)[nH]c2-c2ccc3ncccc3n2)n1 [Compound 78] |
| 100 to 1000 | Cc1cccc(-c2nc(CNCCc3c(F)cccc3F)[nH]c2-c2ccnc3ccccc23)n1 [Compound 79] |
| 100 to 1000 | Cc1cccc(-c2nc(CNCCc3c(F)cccc3F)[nH]c2-c2ccncc2)n1 [Compound 80] |

Biological target: T1, ALK5 (Homo sapiens, UniProt P36897)
T1 construct: purchased Reaction Biology Corp (Malvern, Pa.)
T1 sequence (P36897 34-503): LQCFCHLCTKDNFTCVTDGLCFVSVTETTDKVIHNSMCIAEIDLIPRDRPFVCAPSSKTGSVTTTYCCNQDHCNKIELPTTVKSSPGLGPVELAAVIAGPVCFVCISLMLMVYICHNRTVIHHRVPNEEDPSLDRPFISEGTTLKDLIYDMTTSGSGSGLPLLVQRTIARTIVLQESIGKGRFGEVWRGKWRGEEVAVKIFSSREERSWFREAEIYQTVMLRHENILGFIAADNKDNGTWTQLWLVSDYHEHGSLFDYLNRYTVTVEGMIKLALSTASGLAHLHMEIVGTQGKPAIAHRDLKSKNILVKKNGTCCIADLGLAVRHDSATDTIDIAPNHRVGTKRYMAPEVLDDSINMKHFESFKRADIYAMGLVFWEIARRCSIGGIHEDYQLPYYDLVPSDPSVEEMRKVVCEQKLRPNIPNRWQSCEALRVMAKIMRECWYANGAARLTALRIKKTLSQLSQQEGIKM
Assay: ALK5 enzyme inhibition assay (casein substrate, 10 uM ATP, 33P-ATP, filter-binding; Reaction Biology Corp)
Assay type: biochemical
Conditions: Table 11
Procedure: ALK5 enzyme inhibition assays were performed by Reaction Biology Corp (Malvern, Pa.). 1 mg/mL of peptide substrate (casein) and 10 uM ATP were prepared in a mixture of fresh reaction buffer. The kinase was delivered into the substrate solution which was gently mixed. Compounds in 100% DMSO were added to the kinase reaction mixture by Acoustic technology (Echo550; nanoliter range) and the mixture was incubated for 20 min at room temperature. ^33P-ATP (Specific activity 10 uCi/uL) was added into the reaction mixture to initiate the reaction and the reaction mixture was incubated for 2 hours at room temperature. Radioactivity was detected by filter-binding method and kinase activity data were expressed as the percent remaining kinase activity in test samples compared to vehicle (dimethyl sulfoxide) reactions. IC50 values and curve fits were obtained using Prism (GraphPad Software).

| IC50 [nM] | SMILES |
| --- | --- |
| 100 to 1000 | Cc1cccc(-c2nc(CNCc3ccccc3)[nH]c2-c2ccc3ncnn3c2)n1 [Compound 1, 1-(5-([1,2,4]triazolo[1,5-a]pyridin-6-yl)-4-(6-methylpyridin-2-yl)-1H-imidazol-2-yl)-N-benzylmethanamine] |
| 0.1 to 50 | Cc1cccc(-c2nc(CNCCc3c(F)cccc3F)[nH]c2-c2ccc3ncccc3c2)n1 [Compound 89] |

Same assay, conditions: Table 12

| IC50 [nM] | SMILES |
| --- | --- |
| 100 to 1000 | Cc1cccc(-c2nc(CNc3ccc4c(c3)CCC4N)[nH]c2-c2ccc3ncnn3c2)n1 (stereo not drawn) [Compound 1.5] |
| 100 to 1000 | Cc1cccc(-c2nc(CNc3cccc4c3CCC4N)[nH]c2-c2ccc3ncnn3c2)n1 (stereo not drawn) [Compound 1.6] |
| 1000 to 10000 | Cc1cccc(-c2nc(CNC34CC(C3)C4)[nH]c2-c2ccc3ncnn3c2)n1 [Compound 1.9] |
| 100 to 1000 | Cc1cccc(-c2nc(CNC3CCCOC3)[nH]c2-c2ccc3ncnn3c2)n1 (stereo not drawn) [Compound 1.15] |
| 100 to 1000 | Cc1cccc(-c2nc(CNC3CCCCC3C)[nH]c2-c2ccc3ncnn3c2)n1 (stereo not drawn) [Compound 1.16] |
| 100 to 1000 | Cc1cccc(-c2nc(CNc3cccc4c3C(N)CC4)[nH]c2-c2ccc3ncnn3c2)n1 (stereo not drawn) [Compound 1.20] |
| 100 to 1000 | Cc1cccc(-c2nc(CNc3ccc4c(c3)C(N)CC4)[nH]c2-c2ccc3ncnn3c2)n1 (stereo not drawn) [Compound 1.21] |
